How the values were obtained:
[1] = target: T1, GABAA (α1β2γ2s) receptors (UniProt P14867+P18508+P63138); assay: GABAA receptor two-electrode voltage clamp in oocytes at saturated drug concentration; assay type: cell-based, human α1, rat β2 and γ2s; details: for GABAA % Direct Effect: drug response without receptor agonist; for GABAA % Direct Effect / GABAA % Agonist Effect: percent of control agonist peak, mean ±SEM, 5-6 oocytes, saturated drug; for GABAA % Agonist Effect: drug with γ-aminobutyric acid; for GABAA Drug Response: drug+agonist versus control agonist peak
T1 construct: expressed in transfected cells; host or cells: Xenopus laevis oocytes (intranuclear plasmid injection, α1:β2:γ2 = 1:1:10)
T1 sequence (P14867 28-456): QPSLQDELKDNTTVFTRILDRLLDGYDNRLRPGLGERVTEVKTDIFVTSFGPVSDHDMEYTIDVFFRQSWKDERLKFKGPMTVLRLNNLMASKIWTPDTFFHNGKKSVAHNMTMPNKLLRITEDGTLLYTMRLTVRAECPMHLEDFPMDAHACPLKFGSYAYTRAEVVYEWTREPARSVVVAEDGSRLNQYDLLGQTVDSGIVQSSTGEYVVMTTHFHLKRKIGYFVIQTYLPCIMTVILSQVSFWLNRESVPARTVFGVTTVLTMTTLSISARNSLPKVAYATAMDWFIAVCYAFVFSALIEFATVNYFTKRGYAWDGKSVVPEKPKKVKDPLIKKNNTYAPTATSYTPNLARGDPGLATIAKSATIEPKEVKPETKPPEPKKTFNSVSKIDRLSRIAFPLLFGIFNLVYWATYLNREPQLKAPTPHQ
T1 sequence (P63138 25-474 limits assumed): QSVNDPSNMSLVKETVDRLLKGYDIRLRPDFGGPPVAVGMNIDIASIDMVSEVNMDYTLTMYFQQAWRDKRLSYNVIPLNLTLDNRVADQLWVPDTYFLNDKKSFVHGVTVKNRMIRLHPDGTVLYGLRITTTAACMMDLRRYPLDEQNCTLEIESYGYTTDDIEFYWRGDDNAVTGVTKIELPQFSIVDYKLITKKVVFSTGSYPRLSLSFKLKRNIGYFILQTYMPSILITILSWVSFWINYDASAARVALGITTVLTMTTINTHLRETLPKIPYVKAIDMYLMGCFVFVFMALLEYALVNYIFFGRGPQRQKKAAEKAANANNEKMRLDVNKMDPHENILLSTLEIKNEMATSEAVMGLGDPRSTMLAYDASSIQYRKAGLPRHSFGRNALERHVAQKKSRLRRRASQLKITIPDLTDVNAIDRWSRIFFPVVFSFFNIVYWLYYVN
T1 sequence (P18508 39-466): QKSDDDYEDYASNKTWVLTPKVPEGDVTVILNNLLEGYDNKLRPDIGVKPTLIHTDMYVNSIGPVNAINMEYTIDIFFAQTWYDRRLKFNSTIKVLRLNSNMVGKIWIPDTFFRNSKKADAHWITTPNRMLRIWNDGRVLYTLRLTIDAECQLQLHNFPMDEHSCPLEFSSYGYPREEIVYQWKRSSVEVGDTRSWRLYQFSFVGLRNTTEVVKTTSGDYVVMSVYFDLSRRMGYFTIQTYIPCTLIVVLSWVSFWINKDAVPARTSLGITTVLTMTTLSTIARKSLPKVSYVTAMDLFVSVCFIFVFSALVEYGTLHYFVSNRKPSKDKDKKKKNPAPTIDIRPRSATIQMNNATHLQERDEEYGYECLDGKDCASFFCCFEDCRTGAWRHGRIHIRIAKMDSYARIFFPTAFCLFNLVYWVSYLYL
Text: (§1) GABAA (α1β2γ2s) or NMDA (NR1/NR2A) receptors were expressed in oocytes and studied using standard two-electrode voltage clamp techniques. Hydrocarbons from 14 different organic functional groups were studied at saturated concentrations, and compounds within each group differed only by the carbon number at the ω-position or within a saturated ring. An effect on GABAA or NMDA receptors was defined as a 10% or greater reversible current change from baseline that was statistically different from zero.
(§2) An ovary from tricaine-anesthetized Xenopus laevis frogs was surgically removed using a protocol approved by the Institutional Animal Care and Use Committee at the University of California, Davis. Following manual disruption of the ovarian lobule septae, the ovary was incubated in 0.2% Type I collagenase (Worthington Biochemical, Lakewood, N.J.) to defolliculate oocytes which were washed and stored in fresh and filtered modified Barth's solution composed of 88 mM NaCl, 1 mM KCl, 2.4 mM NaHCO3, 20 mM HEPES, 0.82 mM MgSO4, 0.33 mM Ca(NO3)2, 0.41 mM CaCl2, 5 mM sodium pyruvate, gentamycin, penicillin, streptomycin, and corrected to pH=7.4. All salts and antibiotics were A.C.S. grade (Fisher Scientific, Pittsburgh, Pa.).
(§3) Clones used were provided as a gift from Dr. R. A. Harris (University of Texas, Austin) and were sequenced and compared to references in the National Center for Biotechnology Information database to confirm the identity of each gene. GABAA receptors were expressed using clones for the human GABAA α1 and the rat GABAA β2 and γ2s subunits in pCIS-II vectors. […] In separate oocytes, glutamate receptors were expressed using rat NMDA NR1 clones in a pCDNA3 vector and rat NMDA NR2A clones in a Bluescript vector. RNA encoding each subunit was prepared using a commercial transcription kit (T7 mMessage mMachine, Ambion, Austin, Tex.) was mixed in a 1:1 ratio, and 1-10 ng of total RNA was injected into oocytes and studied 1-2 days later.
Oocytes were studied in a 250 μL linear-flow perfusion chamber with solutions administered by syringe pump at 1.5 ml/min with gastight glass syringes and Teflon tubing. Oocyte GABAA currents were studied using standard two-electrode voltage clamping techniques at a holding potential of […] using a 250 μL channel linear-flow perfusion chamber with solutions administered by syringe pump at 1.5 mL/min.
After FR perfusion for 5 min, oocytes were exposed to 30 sec FR-GABA followed by another 5 min FR washout; this was repeated until stable GABAA-elicited peaks were obtained. Next, FR containing a saturated solution of the study drug (Table 2)—or for gaseous study compounds a vapor pressure equal to 90% of barometric pressure with balance oxygen—was used to perfuse the oocyte chamber for 2 min followed by perfusion with a FR-GABA solution containing the identical drug concentration for 30 sec.
(§4) Modulating drug responses were calculated as the percent of the control (baseline) peak as follows: 100·ID/IB, where ID and IB were the peak currents measured during agonist+drug and agonist baseline perfusions, respectively. When present, direct receptor activation by a drug was similarly calculated as a percent of the agonist response. […] A lack of receptor response (cut-off) was defined as a<10% change from baseline current that was statistically indistinguishable from zero using a two-tailed Student t-test.

[2] = target: T2, NMDA (NR1/NR2A) receptors (Rattus norvegicus, UniProt P35439+Q00959); assay: NMDA receptor two-electrode voltage clamp in oocytes at saturated drug concentration; assay type: cell-based; details: for NMDA % Direct Effect: drug response without receptor agonist; for NMDA % Direct Effect / NMDA % Agonist Effect: percent of control agonist peak, mean ±SEM, 5-6 oocytes, saturated drug; for NMDA % Agonist Effect: drug with glutamate and glycine; for NMDA Drug Response: drug+agonist versus control agonist peak; for NMDA receptor modulation (in words): saturating aqueous concentration; for direct effect on NMDA receptors (in words): without glutamate and glycine agonist
T2 construct: expressed in transfected cells; host or cells: Xenopus laevis oocytes (RNA injection, 1:1)
T2 sequence (Q00959 23-1464, other chains not shown): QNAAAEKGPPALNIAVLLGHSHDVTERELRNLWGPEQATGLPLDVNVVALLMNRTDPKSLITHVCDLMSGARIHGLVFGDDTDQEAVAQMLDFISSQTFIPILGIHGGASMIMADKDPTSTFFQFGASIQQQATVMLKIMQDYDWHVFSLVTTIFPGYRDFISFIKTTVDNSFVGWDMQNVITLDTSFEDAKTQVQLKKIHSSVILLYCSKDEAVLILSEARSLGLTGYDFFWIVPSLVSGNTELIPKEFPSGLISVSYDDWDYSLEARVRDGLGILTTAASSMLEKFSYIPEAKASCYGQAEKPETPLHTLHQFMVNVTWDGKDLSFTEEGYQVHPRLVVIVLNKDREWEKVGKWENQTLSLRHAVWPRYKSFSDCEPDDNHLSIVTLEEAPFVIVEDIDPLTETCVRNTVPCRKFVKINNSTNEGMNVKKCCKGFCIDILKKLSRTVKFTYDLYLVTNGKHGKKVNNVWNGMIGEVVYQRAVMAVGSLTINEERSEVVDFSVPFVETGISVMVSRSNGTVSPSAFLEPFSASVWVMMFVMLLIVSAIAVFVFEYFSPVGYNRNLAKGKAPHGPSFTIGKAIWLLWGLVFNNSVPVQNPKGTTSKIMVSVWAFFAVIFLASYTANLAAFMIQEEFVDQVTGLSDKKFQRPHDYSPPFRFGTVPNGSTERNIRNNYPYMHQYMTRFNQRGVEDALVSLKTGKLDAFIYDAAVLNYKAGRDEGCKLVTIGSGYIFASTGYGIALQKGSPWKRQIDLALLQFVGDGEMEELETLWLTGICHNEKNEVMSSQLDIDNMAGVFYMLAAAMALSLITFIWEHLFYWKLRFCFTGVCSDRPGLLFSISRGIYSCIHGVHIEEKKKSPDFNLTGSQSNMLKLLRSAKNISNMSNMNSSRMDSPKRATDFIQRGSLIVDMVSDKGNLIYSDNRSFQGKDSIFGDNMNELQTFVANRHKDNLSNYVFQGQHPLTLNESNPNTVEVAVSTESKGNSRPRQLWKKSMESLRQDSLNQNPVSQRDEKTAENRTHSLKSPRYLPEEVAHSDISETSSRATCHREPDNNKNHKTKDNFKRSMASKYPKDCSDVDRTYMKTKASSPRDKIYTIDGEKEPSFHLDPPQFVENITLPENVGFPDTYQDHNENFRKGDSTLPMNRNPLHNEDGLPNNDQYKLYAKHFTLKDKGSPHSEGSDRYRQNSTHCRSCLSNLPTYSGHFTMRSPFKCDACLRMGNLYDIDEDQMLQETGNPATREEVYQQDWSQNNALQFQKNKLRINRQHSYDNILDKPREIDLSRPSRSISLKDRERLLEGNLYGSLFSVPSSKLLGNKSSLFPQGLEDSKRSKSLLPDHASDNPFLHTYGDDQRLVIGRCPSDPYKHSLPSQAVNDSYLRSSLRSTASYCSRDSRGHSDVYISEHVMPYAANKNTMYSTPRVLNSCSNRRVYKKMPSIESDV
Text: as §1, §2, §3
Briefly, baseline perfusion solutions were the same as for GABAA with the substitution of equimolar BaCl2 for calcium salts and the addition of 0.1 mM EGTA; this constituted barium frog Ringer's solution (BaFR). Agonist solutions for NMDA studies also contained 0.1 mM glutamate (E) and 0.01 mM glycine (G) to constitute a BaFREG solution.
The syringe pump and perfusion chamber apparatus as well as the clamp holding potential and baseline-agonist exposure protocols were identical to that described for the GABAA studies. The same test compounds, concentrations, and preparative methods were used in NMDA voltage clamp studies as in the GABAA voltage clamp studies (Table 2).
as §4

| Compound | GABAA % Direct Effect [1] | GABAA % Agonist Effect [1] [%] | GABAA Drug Response [1] | NMDA % Direct Effect [2] | NMDA % Agonist Effect [2] [%] | NMDA Drug Response [2] | GABAA receptor modulation (in words) ([1]; saturating aqueous concentration) | NMDA receptor modulation (in words) [2] | NMDA receptor modulation (in words) ([2]; listed as n-butane) | direct effect on NMDA receptors (in words) [2] |
| --- | --- | --- | --- | --- | --- | --- | --- | --- | --- | --- |
| Cc1cccc(C)c1 [1,3-dimethylbenzene] | none | 366 ± 21 | + (potentiation (+) for drug+agonist responses greater than the control agonist peak) | none | 58 ± 3 |  |  |  |  |  |
| CCCCCCCCCCCCO [1-dodecanol] | none | 177 ± 4 | + (potentiation (+) for drug+agonist responses greater than the control agonist peak) | none | 98 ± 1 | 0 (no response (0) for drug+agonist responses that differ by <10% from the control agonist peak) |  |  |  |  |
| CCCCCCCC(=O)OCC [ethyl octanoate] | none | 285 ± 18 | + (potentiation (+) for drug+agonist responses greater than the control agonist peak) | none | 90 ± 1 |  |  |  |  |  |
| CCCCCCF [1-fluorohexane] | 11 ± 4% | 207 ± 13 | + (potentiation (+) for drug+agonist responses greater than the control agonist peak) | none | 101 ± 1 | 0 (no response (0) for drug+agonist responses that differ by <10% from the control agonist peak) |  |  |  |  |
| CCCCCCCCCCC(C)=O [2-dodecanone] | none | 325 ± 30 | + (potentiation (+) for drug+agonist responses greater than the control agonist peak) | none | 97 ± 3 | 0 (no response (0) for drug+agonist responses that differ by <10% from the control agonist peak) |  |  |  |  |
| CCc1cccc(CC)c1 [1,3-diethylbenzene] | none | 305 ± 24 | + (potentiation (+) for drug+agonist responses greater than the control agonist peak) | none | 101 ± 2 | 0 (no response (0) for drug+agonist responses that differ by <10% from the control agonist peak) |  |  |  |  |
| C#CCCCCC [1-heptyne] | none | 172 ± 8 | + (potentiation (+) for drug+agonist responses greater than the control agonist peak) | none | 68 ± 10 |  |  |  |  |  |
| C#CCCCCCC [1-octyne] | none | 259 ± 11 | + (potentiation (+) for drug+agonist responses greater than the control agonist peak) | none | 96 ± 2 | 0 (no response (0) for drug+agonist responses that differ by <10% from the control agonist peak) |  |  |  |  |
| C=CCCCC [1-hexene] | none | 132 ± 2 | + (potentiation (+) for drug+agonist responses greater than the control agonist peak) | none | 97 ± 0 | 0 (no response (0) for drug+agonist responses that differ by <10% from the control agonist peak) |  |  |  |  |
| CCCCCOCCCCC [dipentylether] | none | 211 ± 9 | + (potentiation (+) for drug+agonist responses greater than the control agonist peak) | none | 97 ± 2 | 0 (no response (0) for drug+agonist responses that differ by <10% from the control agonist peak) |  |  |  |  |
| CCCC [butane] | none | 623 ± 68 | + (potentiation (+) for drug+agonist responses greater than the control agonist peak) | none | 7 ± 2 |  | positively modulate | negatively modulates | almost completely inhibited NMDA receptor currents |  |
| CCCCCCCCCCCCCCCCCCCCN [1-eicosanamine] | none | 166 ± 7 | + (potentiation (+) for drug+agonist responses greater than the control agonist peak) | none | 108 ± 1 | 0 (no response (0) for drug+agonist responses that differ by <10% from the control agonist peak) |  |  |  |  |
| CCCCCF [1-fluoropentane] | none | 539 ± 35 | + (potentiation (+) for drug+agonist responses greater than the control agonist peak) | none | 76 ± 2 |  |  |  |  |  |
| CCCCCCCC=O [octanal] | 6 ± 3% | 357 ± 20 | + (potentiation (+) for drug+agonist responses greater than the control agonist peak) | none | 71 ± 3 |  |  |  |  |  |
| CCCCCC [hexane] | none | 129 ± 5 | + (potentiation (+) for drug+agonist responses greater than the control agonist peak) | none | 100 ± 1 | 0 (no response (0) for drug+agonist responses that differ by <10% from the control agonist peak) |  |  |  |  |
| CN1CCOCC1 [4-methylmorpholine] |  |  |  |  |  |  |  |  |  | direct activation of NMDA receptors |
| N-methylpiperadine |  |  |  |  |  |  |  |  |  | direct activation of NMDA receptors |

From US10010525B2, “Methods of inducing anesthesia” (The Regents of the University of California, priority 2012, dated 2018)
